{"source": "patent US20090197859A1", "about": "(Pfizer Inc., priority 2008, published 2009)", "key": {"[1]": {"target": "T1, cloned human 5-HT6 receptor (Homo sapiens, UniProt P50406)", "T1 construct": "host or cells: HeLa cells, G-418 selection, membrane preparation", "T1 sequence (P50406 whole entry)": "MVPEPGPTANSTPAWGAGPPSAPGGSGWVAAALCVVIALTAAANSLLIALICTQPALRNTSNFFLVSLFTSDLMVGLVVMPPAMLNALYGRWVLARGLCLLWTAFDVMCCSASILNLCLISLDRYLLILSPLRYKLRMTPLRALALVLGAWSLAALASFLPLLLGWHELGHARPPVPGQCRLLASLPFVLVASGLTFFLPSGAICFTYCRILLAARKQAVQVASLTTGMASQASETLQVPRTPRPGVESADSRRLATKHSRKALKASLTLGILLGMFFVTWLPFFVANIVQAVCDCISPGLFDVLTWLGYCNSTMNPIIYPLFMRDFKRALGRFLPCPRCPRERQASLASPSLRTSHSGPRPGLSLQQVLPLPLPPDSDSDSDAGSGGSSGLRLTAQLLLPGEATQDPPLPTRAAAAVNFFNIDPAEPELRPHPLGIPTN", "experiment": "5-HT6 Receptor Binding Assay ([3H]-LSD radioligand, SPA)", "conditions": "read-out: 5HT6 % inh @ 1 uM", "procedure": "5-HT6 Receptor Binding Assay\nHela cells containing the cloned human 5-HT6 receptor were acquired from Dr. David R. Sibley's laboratory in National Institute of Health (see Sibley, D. R., J. Neurochemistry, 66, 47-56, 1996). Cells were grown in high glucose Dulbecco's modified Eagle's medium, supplemented with L-glutamine, 0.5% sodium pyruvate, 0.3% penicillin-streptomycin, 0.025% G-418 and 5% Gibco fetal bovine serum and then were harvested, when confluent, in cold phosphate buffered saline.\nHarvested intact cells were washed once in cold phosphate-buffered saline. The cells were pelleted and resuspended in 100 ml of cold 50 mM Tris, 5 mM EDTA and 5 mM EGTA, pH 7.4. Homogenization was with a Vir Tishear generator, 4 cycles for 30 seconds each at setting 50. The homogenized cells were centrifuged at […] for 10 minutes and the supernatant was removed. The pellet was resuspended in 100 ml of the above buffer and rehomogenized for 2 cycles. The rehomogenized cells were then centrifuged at […] for 10 minutes and the supernatant was removed. The combined supernatant (200 ml) was centrifuged at 23,000 RPM (80,000×g) for 1 hour in a Beckman Rotor (42.1 Ti). The membrane pellet was resuspended in […] of assay buffer containing HEPES 20 mM, MgCl2 10 mM, NaCl 150 mM, EDTA 1 mM, pH 7.4 and stored frozen in aliqouts at −70° C.\nThe radioligand binding assay used [^3H]-lysergic acid diethylamide (LSD). The assay was carried out in Wallac 96-well sample plates by the addition of 11 μl of the test sample at the appropriate dilution (the assay employed 11 serial concentrations of samples run in duplicate), 11 μl of radioligand, and 178 μl of a washed mixture of WGA-coated SPA beads and membranes in binding buffer. The plates were shaken for about 5 minutes and then incubated at room temperature for 1 hour. The plates were then loaded into counting cassettes and counted in a Wallac MicroBeta Trilux scintillation counter.\nBinding Constant Determination may be obtained by performing serial dilutions, e.g., eleven dilutions, of test compounds into assay plates using the PE/Cetus Pro/Pette pipetter. These dilutions are followed by radioligand and the bead-membrane mixture prepared as described above. After obtaining the specifically bound cpm, the data are fit to a one-site binding model using GraphPad Prism ver. 2.0. Estimated IC50 values are converted to Ki values using the Cheng-Prusoff equation (Cheng, Y. C. et al., Biochem. Pharmacol., 22, 3099-108, 1973)."}}, "data": [{"smiles": "O=C(c1cccc(N2CCCNCC2)n1)N1CCC[C@H](Oc2ccccc2F)C1", "note": "[Example 40, (6-[1,4]Diazepan-1-yl-pyridin-2-yl)-[(S)-3-(2-fluoro-phenoxy)-piperidin-1-yl]-methanone]", "values": [{"measurement": "melting point", "value": "158 to 159", "unit": "°C"}, {"measurement": "inhibition at 1 µM", "setting": "[1]", "value": 100, "unit": "%"}]}, {"smiles": "Cc1ccc(O[C@H]2CCCN(C(=O)c3cccc(N4CCCNCC4)n3)C2)cc1", "note": "[Example 41, (6-[1,4]Diazepan-1-yl-pyridin-2-yl)-((S)-3-p-tolyloxy-piperidin-1-yl)-methanone]", "values": [{"measurement": "melting point", "value": "157.6 to 158.2", "unit": "°C"}, {"measurement": "inhibition at 1 µM", "setting": "[1]", "value": 94.7, "unit": "%"}]}, {"smiles": "Cc1cccc(O[C@H]2CCN(C(=O)c3cccc(N4CCCNCC4)n3)C2)c1", "note": "[Example 42, (6-[1,4]Diazepan-1-yl-pyridin-2-yl)-((S)-3-m-tolyloxy-pyrrolidin-1-yl)-methanone]", "values": [{"measurement": "melting point", "value": "116 to 118", "unit": "°C"}, {"measurement": "inhibition at 1 µM", "setting": "[1]", "value": 99.4, "unit": "%"}]}, {"smiles": "Cc1ccc(O[C@H]2CCN(C(=O)c3cccc(N4CCCNCC4)n3)C2)cc1", "note": "[Example 43, (6-[1,4]Diazepan-1-yl-pyridin-2-yl)-((S)-3-p-tolyloxy-pyrrolidin-1-yl)-methanone]", "values": [{"measurement": "melting point", "value": "90 to 92", "unit": "°C"}, {"measurement": "inhibition at 1 µM", "setting": "[1]", "value": 97.7, "unit": "%"}]}, {"smiles": "Cc1cccc(O[C@H]2CCCN(C(=O)c3cccc(N4CCCNCC4)n3)C2)c1", "note": "[Example 44, (6-[1,4]Diazepan-1-yl-pyridin-2-yl)-((S)-3-m-tolyloxy-piperidin-1-yl)-methanone]", "values": [{"measurement": "melting point", "value": "184 to 185.6", "unit": "°C"}, {"measurement": "inhibition at 1 µM", "setting": "[1]", "value": 99.7, "unit": "%"}]}, {"smiles": "Cc1ccccc1O[C@H]1CCCN(C(=O)c2cccc(N3CCCNCC3)n2)C1", "note": "[Example 45, (6-[1,4]Diazepan-1-yl-pyridin-2-yl)-((S)-3-o-tolyloxy-piperidin-1-yl)-methanone]", "values": [{"measurement": "melting point", "value": "118 to 119.7", "unit": "°C"}, {"measurement": "inhibition at 1 µM", "setting": "[1]", "value": 95.4, "unit": "%"}]}, {"smiles": "Cc1cccc(O[C@@H]2CCCN(C(=O)c3cccc(N4CCCNCC4)n3)C2)c1", "note": "[Example 48, (6-[1,4]Diazepan-1-yl-pyridin-2-yl)-((R)-3-m-tolyloxy-piperidin-1-yl)-methanone]", "values": [{"measurement": "melting point", "value": "158 to 160", "unit": "°C"}, {"measurement": "inhibition at 1 µM", "setting": "[1]", "value": 86.1, "unit": "%"}]}, {"smiles": "Cc1ccccc1O[C@@H]1CCN(C(=O)c2cccc(N3CCCNCC3)n2)C1", "note": "[Example 49, (6-[1,4]Diazepan-1-yl-pyridin-2-yl)-((R)-3-o-tolyloxy-pyrrolidin-1-yl)-methanone]", "values": [{"measurement": "melting point", "value": "102 to 104", "unit": "°C"}, {"measurement": "inhibition at 1 µM", "setting": "[1]", "value": 89.9, "unit": "%"}]}, {"smiles": "O=C(c1cccc(N2CCCNCC2)n1)N1CCC[C@@H](Oc2cccc(F)c2)C1", "note": "[Example 50, (6-[1,4]Diazepan-1-yl-pyridin-2-yl)-[(R)-3-(3-fluoro-phenoxy)-piperidin-1-yl]-methanone]", "values": [{"measurement": "melting point", "value": "172 to 174", "unit": "°C"}, {"measurement": "inhibition at 1 µM", "setting": "[1]", "value": 89.6, "unit": "%"}]}, {"smiles": "Cc1cccc([C@H]2CCCCN2C(=O)c2cccc(N3CCN(C)CC3)n2)c1", "note": "[Example 52, [6-(4-Methyl-piperazin-1-yl)-pyridin-2-yl]-((R)-2-m-tolyl-piperidin-1-yl)-methanone]", "values": [{"measurement": "melting point", "value": "142 to 142.5", "unit": "°C"}, {"measurement": "inhibition at 1 µM", "setting": "[1]", "value": 96.3, "unit": "%"}]}, {"smiles": "Cc1ccc(O[C@@H]2CCCN(C(=O)c3cccc(N4CCCNCC4)n3)C2)cc1", "note": "[Example 54, (6-[1,4]Diazepan-1-yl-pyridin-2-yl)-((R)-3-p-tolyloxy-piperidin-1-yl)-methanone]", "values": [{"measurement": "melting point", "value": 140, "unit": "°C"}, {"measurement": "inhibition at 1 µM", "setting": "[1]", "value": 86.4, "unit": "%"}]}, {"smiles": "CN1CCN(c2cccc(C(=O)N3CCCC[C@@H]3c3cccc(F)c3)n2)CC1", "note": "[Example 55, [(R)-2-(3-Fluoro-phenyl)-piperidin-1-yl]-[6-(4-methyl-piperazin-1-yl)-pyridin-2-yl]-methanone]", "values": [{"measurement": "melting point", "value": "122.7 to 123", "unit": "°C"}, {"measurement": "inhibition at 1 µM", "setting": "[1]", "value": 94.2, "unit": "%"}]}, {"smiles": "CN1CCN(c2cccc(C(=O)N3CCCC[C@H]3c3ccccc3F)n2)CC1", "note": "[Example 56, [(S)-2-(2-Fluoro-phenyl)-piperidin-1-yl]-[6-(4-methyl-piperazin-1-yl)-pyridin-2-yl]-methanone]", "values": [{"measurement": "melting point", "value": "111.7 to 112.2", "unit": "°C"}, {"measurement": "inhibition at 1 µM", "setting": "[1]", "value": 90.7, "unit": "%"}]}, {"smiles": "CN1CCN(c2cccc(C(=O)N3CCCC[C@@H]3c3ccccc3F)n2)CC1", "note": "[Example 57, [(R)-2-(2-Fluoro-phenyl)-piperidin-1-yl]-[6-(4-methyl-piperazin-1-yl)-pyridin-2-yl]-methanone]", "values": [{"measurement": "melting point", "value": "111.7 to 112", "unit": "°C"}, {"measurement": "inhibition at 1 µM", "setting": "[1]", "value": 94, "unit": "%"}]}, {"smiles": "CN1CCN(c2cccc(C(=O)N3CCCC(c4ccccc4F)C3)n2)CC1", "note": "(centres unmarked) [Example 58, [3-(2-Fluoro-phenyl)-piperidin-1-yl]-[6-(4-methyl-piperazin-1-yl)-pyridin-2-yl]-methanone]", "values": [{"measurement": "melting point", "value": "118 to 119", "unit": "°C"}, {"measurement": "inhibition at 1 µM", "setting": "[1]", "value": 88.9, "unit": "%"}]}, {"smiles": "Cc1ccc(O[C@@H]2CCN(C(=O)c3cccc(N4CCCN(C)CC4)n3)C2)cc1", "note": "[Example 59, [6-(4-Methyl-[1,4]diazepan-1-yl)-pyridin-2-yl]-((R)-3-p-tolyloxy-pyrrolidin-1-yl)-methanone]", "values": [{"measurement": "melting point", "value": "108 to 110", "unit": "°C"}, {"measurement": "inhibition at 1 µM", "setting": "[1]", "value": 76.2, "unit": "%"}]}, {"smiles": "Cc1ccccc1[C@@H](C)N(C)C(=O)c1cccc(N2CCN(C)CC2)n1", "note": "[Example 61, 6-(4-Methyl-piperazin-1-yl)-pyridine-2-carboxylic acid methyl-((R)-1-o-tolyl-ethyl)-amide]", "values": [{"measurement": "melting point", "value": "142 to 143", "unit": "°C"}, {"measurement": "inhibition at 1 µM", "setting": "[1]", "value": 86.7, "unit": "%"}]}, {"smiles": "Cc1ccccc1[C@H]1CCCCN1C(=O)c1cccc(N2CCN(C)CC2)n1", "note": "[Example 62, [6-(4-Methyl-piperazin-1-yl)-pyridin-2-yl]-((R)-2-o-tolyl-piperidin-1-yl)-methanone]", "values": [{"measurement": "melting point", "value": "188 to 188.7", "unit": "°C"}, {"measurement": "inhibition at 1 µM", "setting": "[1]", "value": 70, "unit": "%"}]}, {"smiles": "Cc1ccccc1[C@@H]1CCCCN1C(=O)c1cccc(N2CCN(C)CC2)n1", "note": "[Example 63, [6-(4-Methyl-piperazin-1-yl)-pyridin-2-yl]-((S)-2-o-tolyl-piperidin-1-yl)-methanone]", "values": [{"measurement": "melting point", "value": "136.7 to 137.2", "unit": "°C"}, {"measurement": "inhibition at 1 µM", "setting": "[1]", "value": 77.4, "unit": "%"}]}, {"smiles": "CN1CCN(c2cccc(C(=O)N(C)Cc3ccccc3F)n2)CC1", "note": "[Example 64, 6-(4-Methyl-piperazin-1-yl)-pyridine-2-carboxylic acid (2-fluoro-benzyl)-methyl-amide]", "values": [{"measurement": "melting point", "value": "80 to 81", "unit": "°C"}, {"measurement": "inhibition at 1 µM", "setting": "[1]", "value": 87.6, "unit": "%"}]}, {"smiles": "CN1CCN(c2cccc(C(=O)N(C)Cc3ccccc3Cl)n2)CC1", "note": "[Example 65, 6-(4-Methyl-piperazin-1-yl)-pyridine-2-carboxylic acid (2-chloro-benzyl)-methyl-amide]", "values": [{"measurement": "melting point", "value": "73 to 74", "unit": "°C"}, {"measurement": "inhibition at 1 µM", "setting": "[1]", "value": 89.6, "unit": "%"}]}, {"smiles": "Cc1ccc([C@H]2CCCCN2C(=O)c2cccc(N3CCN(C)CC3)n2)cc1", "note": "[Example 66, [6-(4-Methyl-piperazin-1-yl)-pyridin-2-yl]-((R)-2-p-tolyl-piperidin-1-yl)-methanone]", "values": [{"measurement": "melting point", "value": "143.3 to 144", "unit": "°C"}, {"measurement": "inhibition at 1 µM", "setting": "[1]", "value": 82.1, "unit": "%"}]}, {"smiles": "CN1CCN(c2cccc(C(=O)N3CCCC[C@@H]3c3ccc(F)cc3)n2)CC1", "note": "[Example 67, [(R)-2-(4-Fluoro-phenyl)-piperidin-1-yl]-[6-(4-methyl-piperazin-1-yl)-pyridin-2-yl]-methanone]", "values": [{"measurement": "melting point", "value": "130.8 to 131.5", "unit": "°C"}, {"measurement": "inhibition at 1 µM", "setting": "[1]", "value": 79.1, "unit": "%"}]}, {"smiles": "Cc1cccc(O[C@H]2CCN(C(=O)c3cccc(N4CCCN(C)CC4)n3)C2)c1", "note": "[Example 68, [6-(4-Methyl-[1,4]diazepan-1-yl)-pyridin-2-yl]-((S)-3-m-tolyloxy-pyrrolidin-1-yl)-methanone]", "values": [{"measurement": "melting point", "value": "78 to 80", "unit": "°C"}, {"measurement": "inhibition at 1 µM", "setting": "[1]", "value": 98.2, "unit": "%"}]}, {"smiles": "CN1CCCN(c2cccc(C(=O)N3CC[C@H](Oc4ccccc4Cl)C3)n2)CC1", "note": "[Example 69, [(S)-3-(2-Chloro-phenoxy)-pyrrolidin-1-yl]-[6-(4-methyl-[1,4]diazepan-1-yl)-pyridin-2-yl]-methanone]", "values": [{"measurement": "melting point", "value": "90 to 92", "unit": "°C"}, {"measurement": "inhibition at 1 µM", "setting": "[1]", "value": 97.7, "unit": "%"}]}]}
